The test deals with FGFR. Kind of test: Kinase inhibition, cell-free enzymatic assay. Format: biochemical. The settings on record: 1 mM ATP.

As to `Cc1ccc(F)c(NC(=O)Nc2ccc(-c3cccc4[nH]nc(N)c34)cc2)c1` [RTKi, N-[4-(3-amino-1H-indazol-4-yl)phenyl]-N′-(2-fluoro-5-methylphenyl) urea], the IC50 is more than 12.5 µM.

The values above are taken from patent US20070148225A1 (ALCON, INC., priority 2005, published 2007).
